According to patent US7759366B2 (Sanofi-Aventis, priority 2006, dated 2010):

The compounds below were run against T1, hCB1R (Homo sapiens, UniProt P21554) (assay: Binding to the CB1 receptor ([3H]-SR141716A displacement)). Settings: not given.
T1 sequence (P21554 whole entry): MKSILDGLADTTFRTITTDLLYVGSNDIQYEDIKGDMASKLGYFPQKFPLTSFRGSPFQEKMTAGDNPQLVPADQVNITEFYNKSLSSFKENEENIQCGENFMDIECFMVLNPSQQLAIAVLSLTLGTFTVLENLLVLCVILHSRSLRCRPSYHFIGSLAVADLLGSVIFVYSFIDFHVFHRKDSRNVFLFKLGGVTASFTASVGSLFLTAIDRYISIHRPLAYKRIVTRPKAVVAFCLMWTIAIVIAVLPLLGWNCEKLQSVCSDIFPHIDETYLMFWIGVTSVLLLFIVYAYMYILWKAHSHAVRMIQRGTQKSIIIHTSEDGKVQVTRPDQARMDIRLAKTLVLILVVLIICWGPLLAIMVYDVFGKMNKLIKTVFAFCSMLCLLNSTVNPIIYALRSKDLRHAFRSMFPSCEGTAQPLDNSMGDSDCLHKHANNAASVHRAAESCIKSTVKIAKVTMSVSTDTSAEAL
Experimental: Binding to the CB1 Receptor:
Test compounds: The compounds (3 μl, 10 mM, 100% DMSO), pipetted into 96-well PP microtiter plates, were diluted with 27 μl of 100% DMSO (dimethyl sulfoxide). Proceeding from this solution, further 3-fold dilution steps were undertaken by transferring 10 μl in each case to a new PP microtiter plate and adding a further 20 μl of 100% DMSO. In each case 6 μl of these solutions were transferred into new 96-well PP microtiter plates and made up with 144 μl of assay buffer. The end concentrations ranged from 10 μM to 0.005 μM. Negative control: AM 251, dissolved in assay buffer with 1% DMSO, was added to the dilution series in the microtiter plates as a control. The end concentration was 1 μM. Blank control: assay buffer with 1% DMSO was added to the dilution series of the microtiter plates as a blank control.
Summary of the Assay Parameters:
High control: ^3H binding without addition of the compound
Low control: ^3H binding in the presence of 1 μM AM 251
The values were calculated using the corrected raw data.
The values reported were obtained as average values of a double determination. The IC50 values were calculated from the measurements with the program Xlfit, formula 205. Ki values were obtained from the IC50 and Kd values utilizing the Cheng-Prusoff equation: […]
Literature: Cheng, Y.-C., and Prusoff, W. H. (1973) Biochem. Pharmacol 22, 3099-3108
`CC1(C)C(=O)N(c2ccc(C#N)c(C(F)(F)F)c2)C(=O)N1Cc1ccc(C(F)(F)F)cc1Nc1ccc(F)cc1` [Example 55, 4-{3-[2-(4-Fluorophenylamino)-4-trifluoromethylbenzyl]-4,4-dimethyl-2,5-dioxoimidazolidin-1-yl}-2-trifluoromethylbenzonitrile] was tested, and the Ki was 8 nM. For `COc1ccc(Nc2ccc(Cl)cc2)c(CN2C(=O)N(c3ccc(C#N)c(C(F)(F)F)c3)C(=O)C2(C)C)c1` [Example 9, 4-{3-[2-(4-chlorophenylamino)-5-methoxybenzyl]-4,4-dimethyl-2,5-dioxoimidazolidin-1-yl}-2-trifluoromethylbenzonitrile], the Ki was 13 nM. With `CC1(C)C(=O)N(c2ccc(C#N)c(C(F)(F)F)c2)C(=O)N1Cc1ccccc1Nc1ccc(Cl)cc1Cl` [Example 13, 4-{3-[2-(2,4-dichlorophenylamino)benzyl]-4,4-dimethyl-2,5-dioxoimidazolidin-1-yl}-2-trifluoromethylbenzonitrile] the Ki was 0.9 nM. In the case of `CC1(C)C(=O)N(c2ccc(C#N)c(C(F)(F)F)c2)C(=O)N1Cc1ccccc1Nc1ccc(S(F)(F)(F)(F)F)cc1` [Example 26, 4-{3-[2-(4-pentafluorosulfanylphenylamino)benzyl]-4,4-dimethyl-2,5-dioxoimidazolidin-1-yl}-2-trifluoromethylbenzonitrile], the Ki is reported as 39 nM. Work on `CC1(C)C(=O)N(c2ccc(C#N)c(C(F)(F)F)c2)C(=O)N1Cc1ccccc1Nc1ccc([N+](=O)[O-])cc1` [Example 112, 4-{4,4-dimethyl-3-[2-(4-nitrophenylamino)benzyl]-2,5-dioxoimidazolidin-1-yl}-2-trifluoromethylbenzonitrile] yielded a Ki of 1 nM. With `CC1(C)C(=O)N(c2ccc(F)c(C(F)(F)F)c2)C(=O)N1Cc1ccccc1Nc1ccccc1` [Example 23, 3-(4-Fluoro-3-trifluoromethylphenyl)-5,5-dimethyl-1-(2-phenylaminobenzyl)imidazolidin-2,4-dione] the Ki was 10 nM. `COC(=O)c1ccc(Nc2cc(OC)ccc2CN2C(=O)N(c3ccc(C#N)c(C(F)(F)F)c3)C(=O)C2(C)C)cc1` [Example 110, Methyl 4-{2-[3-(4-cyano-3-trifluoromethylphenyl)-5,5-dimethyl-2,4-dioxoimidazolidin-1-ylmethyl]-5-methoxyphenylamino}benzoate] was tested, and the Ki was 5 nM. In the case of `CC1(C)C(=O)N(c2ccc(C#N)c(C(F)(F)F)c2)C(=O)N1Cc1cc(F)ccc1Nc1ccc(Cl)cc1` [Example 16, 4-{3-[2-(4-chlorophenylamino)-5-fluorobenzyl]-4,4-dimethyl-2,5-dioxoimidazolidin-1-yl}-2-trifluoromethylbenzonitrile], the Ki is reported as 2 nM. `CC1(C)C(=O)N(c2ccc(C#N)c(C(F)(F)F)c2)C(=O)N1Cc1cc(C(F)(F)F)ccc1Nc1ccc(Cl)cc1` [Example 19, 4-{3-[2-(4-chlorophenylamino)-5-trifluoromethylbenzyl]-4,4-dimethyl-2,5-dioxoimidazolidin-1-yl}-2-trifluoromethylbenzonitrile] was tested, and the Ki was 5 nM. For `CC1(C)C(=O)N(c2ccc(F)c(C(F)(F)F)c2)C(=O)N1Cc1ccccc1Nc1ccc(F)cc1F` [Example 52, 1-[2-(2,4-difluorophenylamino)benzyl]-3-(4-fluoro-3-trifluoromethylphenyl)-5,5-dimethylimidazolidine-2,4-dione], the Ki was 3 nM. Compound `CC1(C)C(=O)N(c2ccc(C#N)c(C(F)(F)F)c2)C(=O)N1Cc1ccccc1Nc1cccc(C(F)(F)F)c1` [Example 34, 4-{3-[2-(3-trifluoromethylphenylamino)benzyl]-4,4-dimethyl-2,5-dioxoimidazolidin-1-yl}-2-trifluoromethylbenzonitrile] has a Ki of 14 nM. Compound `COC(=O)c1ccc(Nc2cc(F)ccc2CN2C(=O)N(c3ccc(C#N)c(C)c3)C(=O)C2(C)C)cc1` [Example 160, Methyl 4-{2-[3-(4-cyano-3-methylphenyl)-5,5-dimethyl-2,4-dioxoimidazolidin-1-ylmethyl]-5-fluorophenylamino}benzoate] has a Ki of 3 nM. In the case of `COc1ccc(Nc2ccc(C#N)c(C(F)(F)F)c2)c(CN2C(=O)N(c3ccc(C#N)c(C(F)(F)F)c3)C(=O)C2(C)C)c1` [Example 10, 4-{3-[2-(4-cyano-3-trifluoromethylphenylamino)-5-methoxybenzyl]-4,4-dimethyl-2,5-dioxoimidazolidin-1-yl}-2-trifluoromethylbenzonitrile], the Ki is reported as 24 nM. `CC1(C)C(=O)N(c2ccc(C#N)c(C(F)(F)F)c2)C(=O)N1Cc1cc(C(F)(F)F)ccc1Nc1ccc(F)cc1` [Example 17, 4-{3-[2-(4-Fluorophenylamino)-5-trifluoromethylbenzyl]-4,4-dimethyl-2,5-dioxoimidazolidin-1-yl}-2-trifluoromethylbenzonitrile] showed a Ki of 3 nM. `CC1(C)C(=O)N(c2ccc(C#N)c(C(F)(F)F)c2)C(=O)N1Cc1ccccc1Nc1ccc(S(N)(=O)=O)cc1` [Example 68, 5,5-4-{2-[3-(4-Cyano-3-trifluoromethylphenyl)-5,5-dimethyl-2,4-dioxoimidazolidin-1-ylmethyl]phenylamino}benzene sulfonamide] showed a Ki of 16 nM. In the case of `COc1ccc(Nc2ccccc2)c(CN2C(=O)N(c3ccc(C#N)c(C(F)(F)F)c3)C(=O)C2(C)C)c1` [Example 6, 4-[3-(5-Methoxy-2-phenylaminobenzyl)-4,4-dimethyl-2,5-dioxoimidazolidin-1-yl]-2-trifluoromethylbenzonitrile], the Ki is reported as 21 nM. In the case of `N#Cc1ccc(N2C(=O)N(Cc3ccccc3Nc3ccccc3)C3(CCCCC3)C2=O)cc1C(F)(F)F` [Example 28, 4-[2,4-Dioxo-1-(2-phenylaminobenzyl)-1,3-diazaspiro[4.5]dec-3-yl]-2-trifluoromethylbenzonitrile], the Ki is reported as 87 nM.

Same assay, conditions: CHO-K1/cannabinoid CB1 protein 2 μg/well; [3H]-SR141716A 0.5 nM; Ki from IC50 by Cheng-Prusoff; average of double determination; read-out: hCB1R; binding Ki
`CC1(C)C(=O)N(c2ccc(C#N)c(-c3ccccc3)c2)C(=O)N1Cc1ccc(F)cc1Nc1ccc(C(=O)O)cc1` [Example 227, 4-{2-[3-(6-cyanobiphenyl-3-yl)-5,5-dimethyl-2,4-dioxoimidazolidin-1-ylmethyl]-5-fluorophenylamino}benzoic acid] showed a Ki of 36 nM. `CC1(C)C(=O)N(c2ccc(C#N)c(C(F)(F)F)c2)C(=O)N1Cc1cccc(Nc2ccccc2)c1` [Example 29, 4-[4,4-Dimethyl-2,5-dioxo-3-(3-phenylaminobenzyl)imidazolidin-1-yl]-2-trifluoromethylbenzonitrile] was tested, and the Ki was 107 nM. For `COC(=O)c1ccc(Nc2cc(F)ccc2CN2C(=O)N(c3ccc(C#N)c(-c4ccc(Cl)cc4)c3)C(=O)C2(C)C)cc1` [Example 224, methyl 4-{2-[3-(4′-chloro-6-cyanobiphenyl-3-yl)-5,5-dimethyl-2,4-dioxoimidazolidin-1-ylmethyl]-5-fluorophenylamino}benzoate], the Ki was 6 nM. `CC1(C)C(=O)N(c2ccc(C#N)c(C(F)(F)F)c2)C(=O)N1Cc1ccccc1Nc1ccc(C(=O)NN2CCCCC2)cc1` [Example 174, 4-{2-[3-(4-Cyano-3-trifluoromethylphenyl)-5,5-dimethyl-2,4-dioxoimidazolidin-1-ylmethyl]phenylamino}-N-piperidin-1-ylbenzamide] showed a Ki of 144 nM. `CC1(C)C(=O)N(c2ccc(Oc3ccc(Cl)cc3)c(C(F)(F)F)c2)C(=O)N1Cc1ccccc1Nc1ccc(F)cc1F` [Example 50, 3-[4-(4-Chlorophenoxy)-3-trifluoromethylphenyl]-1-[2-(2,4-difluorophenylamino)benzyl]-5,5-dimethylimidazolidine-2,4-dione] gave a Ki of 11 nM. For `CC1(C)C(=O)N(c2ccc(F)c(C(F)(F)F)c2)C(=O)N1Cc1ccc(F)cc1Nc1ccc(C(=O)N2CCNCC2)cc1` [Example 172, 1-{4-Fluoro-2-[4-(piperazine-1-carbonyl)phenylamino]benzyl}-3-(4-fluoro-3-trifluoromethylphenyl)-5,5-dimethylimidazolidine-2,4-dione], the Ki was 8 nM.

Each compound was assayed against hCB2R (Homo sapiens, UniProt P34972) (assay: In vitro functional assay (FLIPR, intracellular Ca2+) with recombinant HEK293 cells, CB2). Settings: read-out: hCB2R: FLIPR; IC50; recombinant HEK293 cells expressing CB2 and Galpha16; 20 min preincubation, then reference agonist; Ca2+ change.
hCB2R, sequence (P34972 whole entry): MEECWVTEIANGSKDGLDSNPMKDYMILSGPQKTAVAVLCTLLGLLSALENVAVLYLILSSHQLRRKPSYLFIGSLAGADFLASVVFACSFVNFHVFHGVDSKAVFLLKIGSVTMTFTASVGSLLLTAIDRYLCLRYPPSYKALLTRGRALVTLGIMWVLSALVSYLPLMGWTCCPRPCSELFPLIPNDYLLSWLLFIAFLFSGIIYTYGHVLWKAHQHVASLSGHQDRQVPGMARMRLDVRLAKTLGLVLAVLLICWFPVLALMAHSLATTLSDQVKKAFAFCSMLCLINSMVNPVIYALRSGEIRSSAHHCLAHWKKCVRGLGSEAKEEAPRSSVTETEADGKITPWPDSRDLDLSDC
Experimental: Function-testing assays were performed by means of the FLIPR technique (“Fluorometric Imaging Plate Reader”, Molecular Devices Corp.).
To this end, ligand-induced changes in the intracellular concentration of Ca^2+ in recombinant HEK293 cells, which expressed both a cannabinoid receptor (CB1 or CB2) and G-protein Galpha16, were determined. For the studies, cells were sown into 96-well microtiter plates (60 000 cells/well) and left to grow overnight. The medium was removed and the cells were incubated in buffer which contained the fluorescent dye Fluo-4. After this loading with dye, the cells were washed, test substance was added dissolved in buffer, the mixture was incubated for 20 minutes, a known cannabinoid receptor agonist as a reference agonist was added in buffer and, finally, the changes in the intracellular Ca^2+ concentration were measured in the FLIPR unit.
For `COc1ccc(Nc2ccccc2CN2C(=O)N(c3ccc(C#N)c(C(F)(F)F)c3)C(=O)C2(C)C)c(F)c1` [Example 74, 4-{3-[2-(2-fluoro-4-methoxyphenylamino)benzyl]-4,4-dimethyl-2,5-dioxoimidazolidin-1-yl}-2-trifluoromethylbenzonitrile], the IC50 was over 10000 nM. With `CC1(C)C(=O)N(c2ccc(C#N)c(C(F)(F)F)c2)C(=O)N1Cc1ccc(C(F)(F)F)cc1Nc1ccc(Cl)cc1` [Example 57, 4-{3-[2-(4-chlorophenylamino)-4-trifluoromethylbenzyl]-4,4-dimethyl-2,5-dioxoimidazolidin-1-yl}-2-trifluoromethylbenzonitrile] the IC50 was over 10000 nM.

Each compound was assayed against T1, hCB1R (assay: In vitro functional assay (FLIPR, intracellular Ca2+) with recombinant HEK293 cells, CB1). Settings: not given.
Assay type: cell-based
Design: expressed in transfected cells; host or cells: HEK293
Text: In Vitro Functional Assays with Recombinant Cells:
In the case of `COc1ccc(Nc2ccccc2CN2C(=O)N(c3ccc(C#N)c(C(F)(F)F)c3)C(=O)C2(C)C)c(F)c1` [Example 74, 4-{3-[2-(2-fluoro-4-methoxyphenylamino)benzyl]-4,4-dimethyl-2,5-dioxoimidazolidin-1-yl}-2-trifluoromethylbenzonitrile], the IC50 is reported as 4 nM. In the case of `CC1(C)C(=O)N(c2ccc(C#N)c(C(F)(F)F)c2)C(=O)N1Cc1ccc(C(F)(F)F)cc1Nc1ccc(Cl)cc1` [Example 57, 4-{3-[2-(4-chlorophenylamino)-4-trifluoromethylbenzyl]-4,4-dimethyl-2,5-dioxoimidazolidin-1-yl}-2-trifluoromethylbenzonitrile], the IC50 is reported as 36 nM.

Same assay, conditions: recombinant HEK293 cells expressing CB1 and Galpha16; 20 min preincubation, then reference agonist; Ca2+ change; read-out: hCB1R: FLIPR; IC50
`CC1(C)C(=O)N(c2ccc(C#N)c(C(F)(F)F)c2)C(=O)N1Cc1ccc(C(F)(F)F)cc1Nc1ccc(F)cc1` [Example 55, 4-{3-[2-(4-Fluorophenylamino)-4-trifluoromethylbenzyl]-4,4-dimethyl-2,5-dioxoimidazolidin-1-yl}-2-trifluoromethylbenzonitrile] showed an IC50 of 10 nM. In the case of `CC1(C)C(=O)N(c2ccc(C#N)c(-c3ccccc3)c2)C(=O)N1Cc1ccc(F)cc1Nc1ccc(C(=O)O)cc1` [Example 227, 4-{2-[3-(6-cyanobiphenyl-3-yl)-5,5-dimethyl-2,4-dioxoimidazolidin-1-ylmethyl]-5-fluorophenylamino}benzoic acid], the IC50 is reported as 16 nM. For `CC1(C)C(=O)N(c2ccc(C#N)c(C(F)(F)F)c2)C(=O)N1Cc1ccccc1Nc1ccc(S(N)(=O)=O)cc1` [Example 68, 5,5-4-{2-[3-(4-Cyano-3-trifluoromethylphenyl)-5,5-dimethyl-2,4-dioxoimidazolidin-1-ylmethyl]phenylamino}benzene sulfonamide], the IC50 was 44 nM.
